Experimental data as given in PubChem BioAssay (NCI).
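Each compound was tested at five concentrations against cells in 96-well plates for 48 hours. GI50: concentration for 50% inhibition of growth. At the TGI there is no net growth.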

Legend:
Experiment in all cases: DTP human tumour cell line panel, 48 h
CCRF-CEM leukemia = tested on: CCRF-CEM leukemia
DLD-1 colon = tested on: DLD-1 colon
HOP-92 NSCLC = tested on: HOP-92 NSCLC
M19-MEL melanoma = tested on: M19-MEL melanoma
SF-295 CNS = tested on: SF-295 CNS
SN12C renal = tested on: SN12C renal
TK-10 renal = tested on: TK-10 renal
UACC-257 melanoma = tested on: UACC-257 melanoma
SK-MEL-2 melanoma = tested on: SK-MEL-2 melanoma
MDA-MB-435 = tested on: MDA-MB-435

| SMILES | TGI (CCRF-CEM leukemia) [µM] | TGI (DLD-1 colon) [µM] | TGI (HOP-92 NSCLC) [µM] | TGI (M19-MEL melanoma) [µM] | TGI (SF-295 CNS) [µM] | TGI (SN12C renal) [µM] | TGI (TK-10 renal) [µM] | TGI (UACC-257 melanoma) [µM] | TGI (SK-MEL-2 melanoma) [µM] | GI50 (CCRF-CEM leukemia) [µM] | GI50 (HOP-92 NSCLC) [µM] | GI50 (MDA-MB-435) [µM] | TGI (MDA-MB-435) [µM] | GI50 (SF-295 CNS) [µM] | GI50 (SK-MEL-2 melanoma) [µM] | GI50 (SN12C renal) [µM] | GI50 (TK-10 renal) [µM] | GI50 (UACC-257 melanoma) [µM] |
| --- | --- | --- | --- | --- | --- | --- | --- | --- | --- | --- | --- | --- | --- | --- | --- | --- | --- | --- |
| COc1ccc(-c2cc(-c3ccco3)c(C#N)c(=O)[nH]2)cc1 | > 100 | > 100 | > 100 | > 100 | > 100 | > 100 | > 100 | > 100 | – | – | – | – | – | – | – | – | – | – |
| Nc1ccc(C(=O)/C=C/c2ccccc2O)cc1 | > 100 | > 100 | – | > 100 | > 100 | > 100 | > 100 | > 100 | > 100 | – | – | – | – | – | – | – | – | – |
| CCN(CC)CCOc1ccc2c(C)c(C(=O)OC)oc2c1C(=O)/C=C/c1ccc(OC)cc1 | 4.52 | – | 2.77 | – | 23.7 | 2.66 | 5.14 | 36.9 | > 23.2 | 1.35 | 0.551 | 5.54 | 15.8 | 6.76 | 9.99 | 0.166 | 1.94 | 19.8 |
| O=C(C(=O)c1cc(Br)ccc1O)c1cc(Br)ccc1O | > 100 | – | 5.58 | – | 6.27 | 90.9 | 17.9 | 8.43 | 13.3 | 5.5 | 1.48 | 2.84 | 9.25 | 1.98 | 3.88 | 3.47 | 3.44 | 2.21 |
| Cn1ccnc1C(=O)/C=C/c1ccc(C(=O)Nc2c(F)c(F)c(F)c(F)c2F)cc1 | 4.95 | – | 7.33 | – | 3.64 | 3.69 | 3.69 | 10.4 | 5.6 | 1.68 | 2.11 | 2.02 | 4.68 | 1.85 | 2.18 | 1.77 | 1.76 | 3.1 |
| O=C(Oc1ccc2c(c1)CN(Cc1ccccc1)CO2)c1ccccc1 | > 100 | – | 28.2 | – | 38.4 | 34.1 | 29.8 | 29.5 | 50.5 | – | – | – | 54.2 | – | – | – | – | – |
| Nc1ncnc2c1nc(Cl)n2C1OC(CO)C(O)C1O (centres undefined) | > 25.5 | – | > 66.2 | – | > 100 | > 100 | > 32.7 | > 100 | > 100 | – | – | – | > 100 | – | – | – | – | – |
| CCCCCCCCCCCCCCC(C)CCC(=O)O (centres undefined) | – | > 100 | > 100 | > 100 | > 100 | > 100 | > 100 | > 100 | > 100 | – | – | – | – | – | – | – | – | – |
| C=CCN=C(N/N=C/c1ccc([N+](=O)[O-])o1)NS(=O)(=O)c1cc(C(=O)Nc2ccccc2)c(Cl)cc1SCC(N)=O | 27.6 | – | 52.2 | – | > 100 | > 100 | > 100 | 49 | 45.3 | 5.73 | 13.6 | 17.9 | 36.7 | > 100 | 16.1 | 29 | 51.8 | 19.5 |
